Assay results: patent publication US11337968B2, “Phenylquinoline compositions for treatment of ocular disorders and conditions” (The Board of Regents of the University of Oklahoma, priority 2016, dated 2022)
“Also recorded” adds a separate entry of the source.

Tests used:
PPARα [1] = target: T1, PPARα (Homo sapiens, UniProt Q07869); test: PPARα transcriptional activity in PPARα reporter Combo cells (luciferase); format: cell-based; parameters: host or cells: PPARα reporter Combo cells; settings: for PPARα transcriptional activity (luciferase), FIG. 1 and 2: 50 μM, PPARα reporter Combo cells; for PPARα transcriptional activity (luciferase), FIG. 1 and 2 / dose dependent effect on PPARα transcriptional activity, FIG. 3: 36 h; for dose dependent effect on PPARα transcriptional activity, FIG. 3: various concentrations up to 100 μM
T1 sequence (Q07869 1-468): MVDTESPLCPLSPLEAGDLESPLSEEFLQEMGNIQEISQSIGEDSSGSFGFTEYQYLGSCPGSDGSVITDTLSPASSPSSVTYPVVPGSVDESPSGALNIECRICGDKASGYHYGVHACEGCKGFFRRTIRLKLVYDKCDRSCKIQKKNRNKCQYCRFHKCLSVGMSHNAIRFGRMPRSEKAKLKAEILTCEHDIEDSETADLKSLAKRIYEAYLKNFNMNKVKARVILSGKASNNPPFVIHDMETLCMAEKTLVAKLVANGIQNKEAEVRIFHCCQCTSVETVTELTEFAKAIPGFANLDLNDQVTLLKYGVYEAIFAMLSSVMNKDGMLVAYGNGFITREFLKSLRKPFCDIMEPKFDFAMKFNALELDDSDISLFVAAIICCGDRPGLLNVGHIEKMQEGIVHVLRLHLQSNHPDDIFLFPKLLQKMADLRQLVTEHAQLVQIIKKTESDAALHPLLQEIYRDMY
Description: The PPARα reporter Combo cells were treated with the indicated compounds at concentrations of 50 μM for 36 h, and then luciferase activities were measured.
The PPARα reporter Combo cells were treated with indicated compounds at concentrations of 50 μM for 36 h, and then luciferase activities were measured.
Various phenylquinoline derivatives of the present disclosure were tested for their effects on PPARα transcriptional activity in PPARα reporter Combo cells, including NCI8 and compounds 1-13 as disclosed herein, as measured against the effect of Feno-FA.
Cells were treated with various compounds at concentrations of 50 μM for 36 h, after which luciferase activities were measured. […] Cells were treated with various compounds at concentrations of 50 μM for 36 h, after which luciferase activities were measured. […] The experiments were repeated as various increasing concentrations comparing the effects of Feno-FA (FIG. 4), NCI8 (FIG. 5), compound 2 (FIG. 6), and compound 8 (FIG. 7).

VEGF = test: expression of VEGF; settings: potency similar to or higher than fenofibrate
[2] = tested on: human retinal capillary endothelial cells (HRCEC); test: endothelial cell migration in HRCEC; format: cell-based
retinal leukostasis = test: leukostasis assay in oxygen-induced retinopathy (OIR) model; format: in vivo, C57BL/6 mice; settings: OIR mice, 10 mg/kg/day i.p. P12 to P16, examined at P17, vs vehicle
PPARα [3] = target: T1, PPARα; test: luciferase-based promoter assay of PPARα activation
Description: The activation of PPARα by NCI8 was measured by luciferase-based promoter assay. […] Student's T-test was used for statistical analysis.

[4] = tested on: retinal precursor cells (R28); test: TUNEL, palmitate-induced apoptosis in retinal precursor cells; format: cell-based
[5] = tested on: retinal capillaries and pericytes; test: retinal capillary degeneration and pericyte loss in streptozotocin-induced diabetic rats; format: in vivo; settings: i.p., 10 mg/kg/day, 3 weeks
ARPE19 cells = test: palmitate-induced cell death in ARPE19 cells; format: cell-based
[6] = tested on: human retinal capillary endothelial cells (HRCEC); test: tube formation in HRCEC; format: cell-based
[7] = tested on: human retinal Müller cells (MIO-M1); test: TUNEL, palmitate-induced apoptosis in Müller cells; format: cell-based
ICAM-1, MCP-1, TNF-α = test: retinal levels of inflammatory factors by Western blotting in OIR model; format: in vivo, C57BL/6 mice; settings: OIR mice, 10 mg/kg/day i.p. P12 to P16, Western blotting

| SMILES | PPARα transcriptional activity (luciferase), FIG. 1 and 2 (PPARα [1]) | PPARα transcriptional activity at various increasing concentrations, FIG. 4-7 (PPARα [1]; compared with Feno-FA, NCI8, compound 8) | dose dependent effect on PPARα transcriptional activity, FIG. 3 (PPARα [1]) | expression of VEGF (VEGF) | HRCEC migration [2] | concentration range of concentration-dependent inhibition of endothelial cell migration [2] [µM] | number of adherent leukocytes in the retinal vasculature (retinal leukostasis) (retinal leukostasis) | EC50 (PPARα [3]) [µM] | PPARα transcriptional activity (PPARα [3]; luciferase-based promoter assay) | palmitate-induced apoptosis of retinal precursor cells [4] | pericyte loss (pericyte numbers) ([5]; diabetic rats) | retinal capillary degeneration (numbers of acellular capillaries in the retina) ([5]; streptozotocin-induced diabetic rats) | RPE cell death induced by palmitate (ARPE19 cells) | HRCEC tube formation [6] | palmitate-induced apoptosis of human retinal Müller cells [7] | retinal level of ICAM-1 (ICAM-1, MCP-1, TNF-α) | retinal level of MCP-1 (ICAM-1, MCP-1, TNF-α) | retinal level of TNF-α (ICAM-1, MCP-1, TNF-α) |
| --- | --- | --- | --- | --- | --- | --- | --- | --- | --- | --- | --- | --- | --- | --- | --- | --- | --- | --- |
| COc1ccc(-c2cc(C(=O)O)c3ccccc3n2)cc1OC [Compound 2, 2-(3,4-dimethoxyphenyl) quinoline-4-carboxylic acid] | highest agonistic activity | greatest agonistic activity | greatest activity |  |  |  |  |  |  |  |  |  |  |  |  |  |  |  |
| Cc1c(Cl)ccc2c(C(=O)O)cc(-c3ccccc3)nc12 [NCI8, 7-chloro-8-methyl-2-phenylquinoline-4-carboxylic acid] |  |  |  | inhibited | significantly inhibited | 50 to 200 | decreased; also recorded: significantly reduced | 49.9 | activated PPARα transcriptional activity in a concentration-dependent manner; also recorded: Potent effects in enhancing transcriptional activities of PPARα | protective effect | ameliorated; also recorded: significantly increased | ameliorated; also recorded: decreased | protection of RPE cells from cell death | significantly inhibited; also recorded: higher potency than fenofibric acid | protective effect | downregulated; also recorded: significantly down-regulated | downregulated; also recorded: significantly down-regulated | downregulated; also recorded: significantly down-regulated |
| O=C(O)c1cc(-c2ccccc2O)nc2ccccc12 [Compound 8, 2-(2-hydroxyphenyl) quinoline-4-carboxylic acid] | highest agonistic activity |  | greatest activity |  |  |  |  |  |  |  |  |  |  |  |  |  |  |  |
